Assay [1] is described as follows: potency of ADAM10 substrate cleavage blockers – biochemical, QFRET, dose response (AID 743254).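 Also: ADAM10 enzyme with the DM2 quenched FRET peptide as substrate; EDANS fluorescence gain as the protease cuts the substrate; inhibitor potency against ADAM10 proteolytic activity.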
For assay [2], the target named is Disintegrin and metalloproteinase domain-containing protein 17 (Homo sapiens, UniProt P78536). The assay is described as follows: inhibition of ADAM17 substrate cleavage – biochemical, quenched FRET substrate, counter-screen for ADAM10 exosite inhibitor project, dose response (AID 743253). For orientation: Counterscreens check selectivity or assay interference.
Sequence of Disintegrin and metalloproteinase domain-containing protein 17 (P78536 whole entry, the tested form may be a part): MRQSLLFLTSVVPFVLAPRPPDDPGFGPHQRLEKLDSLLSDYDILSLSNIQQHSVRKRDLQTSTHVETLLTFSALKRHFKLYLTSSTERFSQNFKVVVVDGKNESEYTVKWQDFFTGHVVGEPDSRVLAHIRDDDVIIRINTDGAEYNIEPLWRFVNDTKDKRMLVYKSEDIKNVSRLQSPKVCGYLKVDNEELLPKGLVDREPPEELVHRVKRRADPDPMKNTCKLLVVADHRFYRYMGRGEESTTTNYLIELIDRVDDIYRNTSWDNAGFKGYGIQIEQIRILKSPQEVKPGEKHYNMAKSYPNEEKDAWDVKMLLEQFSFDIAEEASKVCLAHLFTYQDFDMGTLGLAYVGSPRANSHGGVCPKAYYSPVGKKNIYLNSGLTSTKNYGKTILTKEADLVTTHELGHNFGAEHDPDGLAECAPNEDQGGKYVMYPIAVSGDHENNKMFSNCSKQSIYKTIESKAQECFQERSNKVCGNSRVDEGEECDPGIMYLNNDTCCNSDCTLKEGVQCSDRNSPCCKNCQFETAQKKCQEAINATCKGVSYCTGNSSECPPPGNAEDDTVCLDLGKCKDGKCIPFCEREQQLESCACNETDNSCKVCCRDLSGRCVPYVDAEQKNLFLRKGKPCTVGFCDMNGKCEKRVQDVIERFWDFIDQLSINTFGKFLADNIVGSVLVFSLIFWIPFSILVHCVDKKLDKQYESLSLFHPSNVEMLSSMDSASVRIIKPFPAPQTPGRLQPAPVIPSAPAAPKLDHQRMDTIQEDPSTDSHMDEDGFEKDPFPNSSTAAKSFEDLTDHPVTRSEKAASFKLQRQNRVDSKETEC

The target in assay [3] is T1, Oxysterols receptor LXR-beta (Homo sapiens, UniProt P55055).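 Also: agonist activity at LXR measured by a cell-based luminescence readout across a dose range, run as a counterscreen for daf-12 agonists; HEK293 cells with Gal4-LXR fusion and GAL4-driven luciferase reporter; potency for activation of Gal4-LXR reporter so compounds are agonists.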
T1 sequence (P55055 whole entry): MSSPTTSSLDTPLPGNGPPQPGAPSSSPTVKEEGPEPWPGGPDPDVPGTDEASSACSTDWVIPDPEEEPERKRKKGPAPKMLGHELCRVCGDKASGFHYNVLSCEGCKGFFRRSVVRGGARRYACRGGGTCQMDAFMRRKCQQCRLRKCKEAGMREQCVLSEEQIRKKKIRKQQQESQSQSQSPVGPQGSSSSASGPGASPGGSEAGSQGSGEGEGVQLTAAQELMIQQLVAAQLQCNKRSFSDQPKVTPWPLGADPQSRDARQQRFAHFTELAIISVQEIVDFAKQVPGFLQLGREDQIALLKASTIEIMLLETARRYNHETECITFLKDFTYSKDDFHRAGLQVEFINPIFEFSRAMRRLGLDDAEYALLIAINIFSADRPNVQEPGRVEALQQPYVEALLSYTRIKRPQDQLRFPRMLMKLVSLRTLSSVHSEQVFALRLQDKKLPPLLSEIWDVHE
It counts as functional, cell-based.

The nature of assay [4]: T. cruzi growth inhibition in host cells, dose response, cell-based, plate reader, dry powder, set 2 (AID 652275). Type of assay: functional.
The target in another assay is Nonstructural protein 1 (Influenza A virus, UniProt Q194T2). It counts as functional, Influenza A virus (A/California/07/2009(H1N1)).
Sequence of Nonstructural protein 1 (Q194T2 whole entry): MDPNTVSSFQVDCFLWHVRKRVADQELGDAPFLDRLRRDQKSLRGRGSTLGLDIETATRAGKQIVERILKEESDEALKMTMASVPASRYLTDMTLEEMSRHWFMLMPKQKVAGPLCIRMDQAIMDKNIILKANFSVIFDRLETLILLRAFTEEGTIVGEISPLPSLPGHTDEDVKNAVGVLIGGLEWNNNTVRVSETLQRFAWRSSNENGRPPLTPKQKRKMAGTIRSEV
Assay [5] is described as follows: HGIII-sPLA2 enzyme inhibition potency – biochemical, QFRET, IC50, dose response (AID 743457).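 Also: green fluorescence rise as the enzyme cleaves BODIPY PC-A2 in liposomes.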
The nature of assay [6]: viability loss in HepG2 hepatoma cells – cell-based, ATP luminescence, cherry-pick, activator set 2, cytotoxicity control, dose response (AID 1053143). It counts as functional.
Assay [7] deals with Metabotropic glutamate receptor 3 (Rattus norvegicus, UniProt P31422). Put plainly: inhibitors of rat mGlu3 Galpha15 signaling – TREx293 cells, calcium flux, mGlu3 NAM project, dose response (AID 651840). It counts as functional.
Sequence of Metabotropic glutamate receptor 3 (P31422 whole entry): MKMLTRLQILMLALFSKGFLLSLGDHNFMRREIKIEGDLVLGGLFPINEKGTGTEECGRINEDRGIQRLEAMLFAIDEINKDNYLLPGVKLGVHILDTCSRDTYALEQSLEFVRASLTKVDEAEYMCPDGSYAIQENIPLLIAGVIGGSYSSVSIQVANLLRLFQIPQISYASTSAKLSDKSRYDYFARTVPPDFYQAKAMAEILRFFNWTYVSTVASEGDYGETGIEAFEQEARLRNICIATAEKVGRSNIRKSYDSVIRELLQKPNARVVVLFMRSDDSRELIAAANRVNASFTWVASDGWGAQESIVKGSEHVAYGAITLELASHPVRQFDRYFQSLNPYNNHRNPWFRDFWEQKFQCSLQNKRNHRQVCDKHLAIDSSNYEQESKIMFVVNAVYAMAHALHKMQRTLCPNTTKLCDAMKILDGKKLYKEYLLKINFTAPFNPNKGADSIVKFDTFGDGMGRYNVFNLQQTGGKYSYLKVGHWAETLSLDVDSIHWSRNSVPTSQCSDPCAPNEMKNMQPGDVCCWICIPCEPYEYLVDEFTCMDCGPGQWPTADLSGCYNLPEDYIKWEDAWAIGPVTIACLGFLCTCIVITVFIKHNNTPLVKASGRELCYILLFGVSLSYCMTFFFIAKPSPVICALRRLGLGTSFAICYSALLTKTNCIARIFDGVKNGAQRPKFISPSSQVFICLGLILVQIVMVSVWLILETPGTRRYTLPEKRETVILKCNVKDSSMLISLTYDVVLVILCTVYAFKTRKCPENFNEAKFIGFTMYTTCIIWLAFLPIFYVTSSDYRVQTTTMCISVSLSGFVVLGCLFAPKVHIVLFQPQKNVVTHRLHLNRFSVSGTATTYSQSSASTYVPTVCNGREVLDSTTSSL

IC50, EC50 and AC50 data for eight molecules are collected here from ChEMBL document CHEMBL1201862, “PubChem BioAssay data set” (2004).

Molecules are shown by their SMILES. Activity calls are given as the source filed them.

Turning to `NC(=O)[C@H]1CC2(CC(c3cccc(NC(=O)CC(c4ccccc4)c4ccccc4)c3)=NO2)CN1C(=O)CC(c1ccccc1)c1ccccc1` (stereo not given in full), the IC50 in assay [1] and in assay [2] was > 69.5 µM (inactive) in each case.
Regarding `Cc1ccc(N/N=C(\C#N)C(=N)N2CCCCCC2)cc1`, the EC50 (usually the concentration giving half of the maximal effect) in assay [3] was > 67.5 µM (inactive).
As to `CC(C)N1C[C@H](CN(C)Cc2ccc(Oc3ccccc3)cc2)Oc2c(NC(=O)c3ccncc3)cccc2C1=O`, the concentration at half-maximal activity (AC50) (in general, the midpoint of the concentration-response curve, whichever way the signal moves) in assay [4] is 0.00193 µM (active).
In the case of `CCN1C(=O)/C(=C2/C=Cc3ccccc3N2CC)SC1=S`, the 50% inhibitory concentration (IC50) (as a rule, the concentration needed to halve the response being measured) on Nonstructural protein 1 is 9.45 µM (active); in assay [5], 94.1 µM (inactive).
Turning to `COC(=O)c1c(NC(C)=O)sc(C(=O)Nc2ccccc2F)c1C`, in assay [6], the AC50 was 26 µM (active).
With `COc1ccc(C#Cc2ccc(C(=O)N3CCCC(C)(C)C3)cc2)cc1`, the IC50 in assay [7] is 2.01 µM.
Consider `c1ccc2c(c1)c1c3n2CCNC3CCC1` (stereo not given), for which the IC50 in assay [5] was > 122 µM (inactive).
For `C=CCC1(O)CCCN(C(=O)c2ccc(C#Cc3ccc(OC)cc3)cc2)C1` (stereo not given), the half-inhibitory concentration (IC50) in assay [7] worked out at 0.783 µM.
